{"source": "patent US20150328109A1", "about": "“DERMAL COMPOSITIONS CONTAINING UNNATURAL HYGROSCOPIC AMINO ACIDS” (MEDPHARM LIMITED, priority 2012, published 2015)", "key": {"[1]": {"assay": "Deliquescence relative humidity (DRH) of a saturated solution in a sealed vessel at 32° C.", "type": "physicochemical", "settings": "saturated solution in water (1 mL), 24 hours", "method": "This experiment was to measure the deliquescence relative humidity (DRH) caused by a saturated amino acid solution in a sealed vessel at 32° C.; the lower the DRH, the greater the water holding capacity of the solution measured. Deliquescence relative humidity is the relative humidity at which the compound deliquesces, i.e. the relative humidity in which the compound absorbs so much water that it dissolves within the absorbed water.\nThe apparatus is maintained at 32° C. The temperature of 32° C. was chosen for being the temperature of outer stratum corneum. As the amino acids are to eventually be delivered to the outer layer of the skin, then the water holding capacity of these compounds at 32° C. is important.\nThe saturated solution is prepared as above by adding the amino acid to water (1 mL, 32° C.), whilst swirling. The total amino acid is weighed before adding to the water and the remaining amino acid so that the mass of compound used can be determined. The saturated solution (1 mL, 32° C.) is then transferred into the vial, again because of partial molar volume causing a change in volume by the addition of the amino acid to the water.\nThe temperature and % RH (% Relative Humidity) shown on the thermo-hygrometer are recorded every 30 minutes until the % RH remains constant. The temperature confirms that the temperature experienced by the sample is 32° C."}, "[2]": {"settings": "cited from earlier work"}, "[3]": {"assay": "In vitro permeation of diclofenac diethylamine (DDEA) through epidermal membrane in Franz type diffusion cells after amino acid pre-treatment", "type": "in vitro ADME, Human", "settings": "maximal enhancement of the drug's permeation by amino acid pre-treatment", "method": "(§1) Acyclovir (ACV), metronidazole and diclofenac diethylamine (DDEA) were analysed using HPLC, using of a Waters Alliance Separations Module and Waters detector. The temperature of the column and samples were maintained at 45±2° C. and 5.0±2° C., respectively. A Kinetix™ C-18 (Phenomenex, USA) column (150 mm×4.6 mm 5 μm particle size) with a guard column (Phenomenex USA, C-18 4.0×3.0 mm) was employed as the stationary phase. The mobile phase was three part; mobile phase A, water; mobile phase B, methanol; and mobile phase C, 10 mM ammonium phosphate buffer pH 2.5. The mobile phase was run using a gradient flow (Table 2) with a flow rate of 0.8 mL/min. Samples were run for 12 minutes with an injection volume of 10 μL. Acyclovir, metronidazole and DDEA were processed at a wavelength of 276 nm, with approximate retention times of 4.7, 6.5, and 8.7 min, respectively. Calibration curves were constructed from a series of standards prepared by serial dilution in conjunction with separately prepared quality controls. […] Data were recorded and analysed using Empower Pro^3 Software. […]\n(§2) Three experiments were performed, one for each API (Acyclovir, metronidazole and DDEA). […] The integrity of the epidermal membrane was assessed using electrical resistance to ensure the epidermal membrane was intact. […] Samples were analysed using HPLC and the level of each API that had permeated was quantified."}, "RHE tissues [4]": {"tested_on": "RHE tissues", "assay": "RHE irritation assessment Method 2: Mattek's MTT effective time (ET-50) assay", "type": "cell-based, human", "from_the_text": "Method 1 was used to investigate the potential for alpha-hydroxylglycine (α-H-G) and L-homoserine (L-h-S) to cause skin irritation. The protocol is primarily designed and validated for single compounds rather than solutions. Therefore to provide further insight into the potential of N-hydroxyserine and N-hydroxylglycine to cause skin irritation a second protocol was investigated using Mattek's MTT effective time (ET-50) assay which is designed to test mixtures of compounds. In addition two commercially available amino acid related compound (L-serine and glycine) were selected and tested as comparators for N-hydroxyserine and N-hydroxylglycine. […] As a general guideline, the following groupings can be used in assigning expected in vivo irritancy responses based on the ET-50 results obtained: The irritation assessment of the solutions was performed using the protocol described below. Each of the test solutions; […] Damaged tissues were discarded. • (iii) The tissue were transferred into the assay medium and incubated at 37° C., 5% CO2 until the application of the test solutions; […] The working MTT solution was prepared using the following procedure: • (i) MTT concentrate was removed from the freezer and allowed to thaw. The concentrate was diluted with the MTT diluent solution (1 mL of concentrate to 4 mL of MTT diluent solution). • (ii) MTT solution from Step (i) was centrifuged at a g-force of 300 for 5 min to remove any particulates. • (iii) The supernatant of the MTT solution from Step (ii) was stored in the dark at 4° C. for a maximum period of 24 h and used as required. […] The plates were incubated for 3 h (+/−5 min) at 37° C., 5% CO2 and 95% humidified atmosphere. • (vi) The treated tissues were subsequently transferred into a new plate filled with 1 mL of extractant solution. • (vii) The plates were sealed using Parafilm® to stop evaporation and protected from light using foil before extract at 2-8° C. to minimise evaporation. • (viii) Following extraction the RHE tissue were removed from the wells and an additional 1 mL of extractant solution was added. Using a pipette the extraction solution was mixed and made visually homogenous. • (ix) The solution from Step (viii) was transferred in to n=3 wells (200 μL per well) using an automatic pipette of a 96 well plate and the optical density was measured at a wavelength of 570 nm."}, "[5]": {"assay": "In vitro permeation of metronidazole through epidermal membrane in Franz type diffusion cells after amino acid pre-treatment", "type": "in vitro ADME, Human", "settings": "maximal enhancement of the drug's permeation by amino acid pre-treatment", "method": "as §1, §2"}, "RHE tissues [6]": {"tested_on": "RHE tissues", "settings": "cited from earlier work"}, "[7]": {"assay": "Snake study: water uptake into snake skin after treatment with amino acid solution", "design": "species or system Elaphe guttata, the American corn snake", "settings": "24 h treatment with 1.33M amino acid solution, dried, then 40% RH", "procedure": "• All experiments were performed in triplicate (i.e. three separate solutions, three pieces of skin, one per solution). […] Each piece was weighed and placed directly into one the of the amino acid solutions, one piece of snake skin per solution. • After 1 hour, the snake skin was removed from the solution and blotted dry on filter paper. The weight of the snake skin was recorded before the same snake skin was returned to the amino acid solution. • After an additional 23 hours (24 hours in total), the snake skin was again blotted dry on filter paper and weighed. • The snake skin, now having absorbed the test amino acid, was then placed in a vacuum desiccator over silica (0% RH) for 48 hours before being weighed.\n• A 10% w/w concentration solution of each compound is made by stirring the compound (100 mg) in water (1 mL). Three separate solutions of each compound are made separately so that the experiment can be carried out in triplicate simultaneously. […] The weight of the snake skin is recorded before the same snake skin is returned to the same compound solution. • After an additional 23 hours (24 hours in total), the snake skin is again blotted dry on filter paper and weighed. • The snake skin is then placed in a vacuum desiccator over silica (0% relative humidity (RH)) for 48 hours before being weighed. […]"}, "RHE tissues [8]": {"tested_on": "RHE tissues", "assay": "RHE irritation assessment Method 1: SkinEthic Skin Irritation Test-42 bis assay (MTT), plus 24 h contact time", "type": "cell-based, human", "settings": "42 min and 24 h exposure, 5 and 1% w/v α-H-G, 10 and 1% w/v L-h-S in water", "from_the_text": "The purpose of this experiment was to investigate the potential of alpha-hydroxyglycine (α-H-G) and L-homoserine (L-h-S) to cause skin irritation. The method was based on the validated SOP for the “The SkinEthic Skin Irritation Test-42 bis assay” in accordance to OECD guideline Test No. 439: In Vitro Skin Irritation. The protocol is provided in Section 1.2. Further details on the method can be found in the SkinEthic™ RHE SOP, Version 2.1 (July 2009), SkinEthic skin irritation test-42 bis test method for the prediction of acute skin irritation of chemicals: 42 minutes application+42 hours post-incubation. Available at: [http://ecvam.jrc.ec.europa.eu].\nIn addition, a further experiment was performed where the contact time of the test solution with the tissue was increased to 24 h. Following which point an MTT assay was used to determine the tissue viability and the test solutions potential to cause irritation.\nThe following steps were completed on receipt of the tissues: • (i) Wells of 6-well plates were filled with 1 mL growth culture medium. • (ii) Tissue were removed from their packaging, cleaned to remove the transport agarose and inspected for signs of damage; damaged tissues were discarded. • (iii) The tissue were transferred into the growth culture medium then incubated at 37° C., 5% CO2 until application of the test solution.\n1.2.1.1.6 Applications of 5 and 1% w/v α-H-G and 10 and 1% w/v L-h-S and Controls • (i) 16 μL±0.5 μL of the test solutions (5% w/v α-hydroxyglycine (α-H-G) in water, 1% w/v α-hydroxyglycine (α-H-G) in water, 10% w/v L-homoserine (L-h-S) in water, 1% w/v L-homoserine (L-h-S) in water) and negative (PBS) and positive (5% SDS) controls were dispensed onto the top of the epidermal tissue, using positive displacement pipette. […]"}, "[9]": {"settings": "mass used printed beside the name"}}, "note": "Like-named read-outs stand apart in the source and are kept apart here."}
{"compound": "C[C@H](N)C(=O)O", "note": "[Alanine]", "values": [{"measurement": "DRH", "setting": "[1]; [9]", "value": 83.1, "unit": "%"}]}
{"compound": "NC(=O)C[C@H](N)C(=O)O", "note": "[Asparagine]", "values": [{"measurement": "DRH", "setting": "[1]; [9]", "value": 91.2, "unit": "%"}]}
{"compound": "N[C@@H](CC(=O)O)C(=O)O", "note": "[Aspartic acid]", "values": [{"measurement": "DRH", "setting": "[1]; [9]", "value": 100.0, "unit": "%"}]}
{"compound": "N[C@@H](CS)C(=O)O", "note": "[Cysteine]", "values": [{"measurement": "DRH", "setting": "[1]; [9]", "value": 89.6, "unit": "%"}]}
{"compound": "N[C@H](CO)C(=O)O", "note": "[D-serine]", "values": [{"measurement": "DRH", "setting": "[1]; D-serine 0.95 g", "value": 85.40, "unit": "%"}, {"measurement": "DRH", "setting": "[1]; D-serine 1.2 g", "value": 82.13, "unit": "%"}]}
{"compound": "O=C(O)Cc1ccccc1Nc1c(Cl)cccc1Cl", "note": "[Diclofenac diethylamine]", "values": [{"measurement": "Log P", "setting": "[2]", "value": 0.85}, {"measurement": "ER (drug absorption enhancement factor)", "setting": "[3]", "value": 19}]}
{"compound": "NCC(=O)O", "note": "[Glycine, reference compound]", "values": [{"measurement": "DRH", "setting": "[1]; [9]", "value": 79.13, "unit": "%"}, {"measurement": "expected in vivo irritancy from ET-50", "setting": "RHE tissues [4]", "value": "non-irritants"}, {"measurement": "impact on the viability of the RHE tissues", "setting": "RHE tissues [4]", "value": "no significant impact"}]}
{"compound": "O=C(O)[C@@H]1CCCN1", "note": "[L-Proline]", "values": [{"measurement": "DRH", "setting": "[1]; [9]", "value": 44.6, "unit": "%"}]}
{"compound": "N[C@@H](CO)C(=O)O", "note": "[L-serine, reference compound]", "values": [{"measurement": "DRH", "setting": "[1]; [9]", "value": 82.53, "unit": "%"}, {"measurement": "expected in vivo irritancy from ET-50", "setting": "RHE tissues [4]", "value": "non-irritants"}, {"measurement": "impact on the viability of the RHE tissues", "setting": "RHE tissues [4]", "value": "no significant impact"}]}
{"compound": "Cc1ncc([N+](=O)[O-])n1CCO", "note": "[Metronidazole]", "values": [{"measurement": "ER (drug absorption enhancement factor)", "setting": "[5]", "value": 15}, {"measurement": "Log P", "setting": "[2]", "value": "−0.02"}]}
{"compound": "C[C@@H](O)[C@H](N)C(=O)O", "note": "[Threonine]", "values": [{"measurement": "DRH", "setting": "[1]; [9]", "value": 86.0, "unit": "%"}]}
{"compound": "NC(N)=O", "note": "[Urea]", "values": [{"measurement": "DRH", "setting": "[1]; [9]", "value": 75.03, "unit": "%"}]}
{"compound": "O=[N+]([O-])[O-].O=[N+]([O-])[O-].[Zn+2]", "note": "[Zinc Nitrate]", "values": [{"measurement": "DRH", "setting": "[1]; [9]", "value": 45.8, "unit": "%"}]}
{"compound": "O=[N+]([O-])O", "note": "[conc. Nitric acid, Nitric acid]", "values": [{"measurement": "ET-50 (hrs), general guideline examples", "setting": "RHE tissues [6]; guideline groupings of the assay", "value": "<0.5 strong/severe, possible corrosive hrs"}]}
{"compound": "NC(O)C(=O)O", "note": "(stereo not drawn) [α-hydroxyglycine, 2-Amino-2-hydroxyacetic acid]", "values": [{"measurement": "DRH", "setting": "[1]; [9]", "value": 79.73, "unit": "%"}, {"measurement": "DRH", "setting": "[1]; mass used printed beside the name, listed as Hydroxyglycine", "value": 79.7, "unit": "%"}, {"measurement": "ET-50 (exposure time to reduce viability to 50% of the control)", "setting": "RHE tissues [4]; 10% w/v N-H-S, 1% w/v N-H-G in water, dosing periods 2, 6 and 24 h", "value": "< 24", "unit": "h"}, {"measurement": "expected in vivo irritancy from ET-50", "setting": "RHE tissues [4]; 10% w/v N-H-S, 1% w/v N-H-G, 10% w/v L-Serine, 10% w/v Glycine in water", "value": "non-irritant"}, {"measurement": "average percentage weight increase after 24 h at 40% RH", "setting": "[7]", "value": "particularly advantageous properties"}, {"measurement": "skin irritation potential (viability below 50% of negative control = irritant)", "setting": "RHE tissues [8]; listed as alpha-hydroxyglycine", "value": "non-irritants"}, {"measurement": "skin irritation potential (viability below 50% of negative control = irritant)", "setting": "RHE tissues [8]; listed as α-H-G", "value": "non-irritating"}]}
{"compound": "Triton X-100 [1% Triton X-100]", "values": [{"measurement": "ET-50 (hrs), general guideline examples", "setting": "RHE tissues [6]", "value": "4-12 moderate to mild hrs"}]}
